Experiments:
Akt1 kinase = molecular target: T1, Akt1 kinase (Homo sapiens, UniProt P31749); assay: Akt kinase assay (HTRF, GSK-derived biotinylated peptide substrate); type: biochemical; conditions: activated Akt1 kinase
T1 construct: a middle T tag was added to the 5′ end of the full length Akt1 gene; biotin tag (from pS2neo vector); made in house; host or cells: Drosophila S2 cells
Procedure: (§1) Activated Akt isoforms and pleckstrin homology domain deletion constructs were assayed utilizing a GSK-derived biotinylated peptide substrate. The extent of peptide phosphorylation was determined by Homogeneous Time Resolved Fluorescence (HTRF) using a lanthanide chelate(Lance)-coupled monoclonal antibody specific for the phosphopeptide in combination with a streptavidin-linked allophycocyanin (SA-APC) fluorophore which will bind to the biotin moiety on the peptide. When the Lance and APC are in proximity (i.e. bound to the same phosphopeptide molecule), a non-radiative energy transfer takes place from the Lance to the APC, followed by emission of light from APC at 665 nm.
(§2) Materials Required for the Assay:
(§3) A. Activated Akt isozyme or pleckstrin homology domain deleted construct
(§4) B. Akt peptide substrate: GSK3α (S21) Peptide #3928 biotin-GGRARTSSFAEPG (SEQ. ID. NO.:15), Macromolecular Resources.
(§5) C. Lance labeled anti-phospho GSK3α monoclonal antibody (Cell Signaling Technology, clone #27).
(§6) D. SA-APC (Prozyme catalog no. MS lot #896067).
(§7) E. Microfluor®B U Bottom Microtiter Plates (Dynex Technologies, Catalog no. 7205).
(§8) F. Discovery® HTRF Microplate Analyzer, Packard Instrument Company.
(§9) G. 100× Protease Inhibitor Cocktail (PIC): 1 mg/mL benzamidine, 0.5 mg/mL pepstatin, 0.5 mg/mL leupeptin, 0.5 mg/mL aprotinin.
(§10) H. 10× Assay Buffer: 500 mM HEPES, pH 7.5, 1% PEG, […], 1 mM EGTA, 1% BSA, 20 mM ∂-Glycerol phosphate.
(§11) I. Quench Buffer: 50 mM HEPES pH 7.3, 16.6 mM EDTA, 0.1% BSA, 0.1% Triton X-100, 0.17 nM Lance labeled monoclonal antibody clone #27, 0.0067 mg/mL SA-APC
(§12) J. ATP/MgCl2 working solution: 1× Assay buffer, 1 mM DTT, 1×PIC, 125 mM KCl, 5% Glycerol, 25 mM MgCl2, 375 μM ATP
(§13) K. Enzyme working solution: 1× Assay buffer, 1 mM DTT, 1×PIC, 5% Glycerol, active Akt. The final enzyme concentrations were selected so that the assay was in a linear response range.
(§14) L. Peptide working solution: 1× Assay buffer, 1 mM DTT, 1×PIC, 5% Glycerol, 2 μM GSK3 biotinylated peptide #3928
(§15) The reaction is assembled by adding […] of the ATP/MgCl2 working solution to the appropriate wells of a 96-well microtiter plate. Inhibitor or vehicle (1.0 μL) is added followed by 10 μL of peptide working solution. The reaction is started by adding 13 μl, of the enzyme working solution and mixing. The reaction is allowed to proceed for 50 min and then stopped by the addition of 60 μL, HTRF quench buffer. The stopped reactions were incubated at room temperature for at least 30 min and then read on the Discovery instrument.

Akt2 kinase = molecular target: T2, Akt2 kinase (Homo sapiens, UniProt P31751); assay: as above; type: biochemical; conditions: activated Akt2 kinase
T2 construct: a middle T tag was added to the 5′ end of the full length Akt2 using the PCR primer; biotin tag (from pS2neo vector); made in house; host or cells: Drosophila S2 cells
T2 sequence (P31751 whole entry): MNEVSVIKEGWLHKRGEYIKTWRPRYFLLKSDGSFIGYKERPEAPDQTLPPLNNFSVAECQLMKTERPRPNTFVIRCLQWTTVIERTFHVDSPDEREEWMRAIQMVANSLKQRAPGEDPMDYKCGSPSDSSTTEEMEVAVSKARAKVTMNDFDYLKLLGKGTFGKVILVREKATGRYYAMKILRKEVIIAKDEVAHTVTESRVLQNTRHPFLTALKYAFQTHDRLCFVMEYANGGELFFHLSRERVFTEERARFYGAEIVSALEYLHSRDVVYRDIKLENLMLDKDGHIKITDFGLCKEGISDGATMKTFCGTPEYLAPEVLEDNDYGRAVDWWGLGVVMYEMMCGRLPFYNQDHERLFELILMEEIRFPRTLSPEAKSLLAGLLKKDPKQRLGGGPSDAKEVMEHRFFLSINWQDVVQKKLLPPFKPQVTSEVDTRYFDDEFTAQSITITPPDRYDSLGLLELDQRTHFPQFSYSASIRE
Procedure: as §1, §2, §3, §4, §5, §6, §7, §8, §9, §10, §11, §12, §13, §14, §15

T1 sequence (P31749 whole entry): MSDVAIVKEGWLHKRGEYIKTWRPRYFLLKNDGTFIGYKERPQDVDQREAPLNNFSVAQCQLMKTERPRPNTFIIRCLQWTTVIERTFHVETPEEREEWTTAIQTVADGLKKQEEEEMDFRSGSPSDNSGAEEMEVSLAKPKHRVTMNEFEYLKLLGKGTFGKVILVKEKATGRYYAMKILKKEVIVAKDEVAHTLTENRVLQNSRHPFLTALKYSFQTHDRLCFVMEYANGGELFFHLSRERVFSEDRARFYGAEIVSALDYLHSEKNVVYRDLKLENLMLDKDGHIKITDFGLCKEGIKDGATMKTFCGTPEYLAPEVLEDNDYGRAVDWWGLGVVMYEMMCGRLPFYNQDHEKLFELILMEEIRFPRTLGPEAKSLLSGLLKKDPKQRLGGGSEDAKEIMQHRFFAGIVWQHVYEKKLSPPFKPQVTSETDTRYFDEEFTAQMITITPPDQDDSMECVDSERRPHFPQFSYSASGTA

IC50 (Akt1 kinase) [nM]	IC50 (Akt2 kinase) [nM]	Compound
6	44.4	NC1(c2ccc(-c3nc4ccn5c(-c6ncccn6)nnc5c4cc3-c3ccccc3)cc2)CC(F)(F)C1 [EXAMPLE 2-10, 3,3-difluoro-1-{4-[9-phenyl-3-(2-pyrimidinyl)[1,2,4]triazolo[3,4-f]-1,6-naphthyridin-8-yl]phenyl}cyclobutanamine]
0.3	4	N[C@]1(c2ccc(-c3nc4ccn5c(-c6ncccn6)nnc5c4cc3-c3ccccc3)cc2)C[C@](O)(C2CC2)C1 [EXAMPLE 2-14, trans-3-amino-1-cyclopropyl-3-{-4-[9-phenyl-3-(2-pyrimidinyl)-[1,2,4]triazolo[3,4-f]-1,6-naphthyridin-8-yl]phenyl}cyclobutanol]
0.4	4	C[C@]1(O)C[C@@](N)(c2ccc(-c3nc4ccc5nnc(-c6cccnc6)n5c4nc3-c3ccccc3)cc2)C1 [EXAMPLE 3-7, trans-3-amino-1-methyl-3-{4-[2-phenyl-9-(3-pyridinyl)[1,2,4]triazolo-[4′,3′:1,6]pyrido[2,3-b]pyrazin-3-yl]phenyl}cyclobutanol]
0.3	11	N[C@]1(c2ccc(-c3nc4ccc5nnc(-c6ccc(O)cc6)n5c4nc3-c3ccccc3)cc2)C[C@](O)(C2CC2)C1 [EXAMPLE 3-14, 4-{3-[4-(trans-1-amino-3-cyclopropyl-3-hydroxycyclobutyl)phenyl]-2-phenyl[1,2,4]triazolo[4′,3′:1,6]pyrido[2,3-b]pyrazin-9-yl]phenol]
0.5	6.3	NC1(c2ccc(-c3nc4ccc5nnc(CCC(F)(F)F)n5c4nc3-c3ccccc3)cc2)CC(O)(C2CC2)C1 (stereo not drawn) [EXAMPLE 3-20, trans-3-amino-1-cyclopropyl-3-{4-[2-phenyl-9-(3,3,3-trifluoropropyl)[1,2,4]triazolo[4′,3′:1,6]pyrido[2,3-b]pyrazin-3-yl]phenyl}cyclobutanol]
4.7	84.3	Cc1nc(-c2nnc3c4cc(-c5ccccc5)c(-c5ccc(C6(N)CC(F)(F)C6)cc5)nc4ccn23)n[nH]1 [EXAMPLE 5-16, 3,3-difluoro-1-{4-[3-(5-methyl-1H-1,2,4-triazol-3-yl)-9-phenyl[1,2,4]triazolo[3,4-f]-1,6-naphthyridin-8-yl]phenyl}cyclobutanamine]

Source: patent publication US8207169B2, “Substituted [1,2,4]triazolo[4′,3′:1,6]pyrido[2,3-b]pyrazines of the formula D” (MSD K.K., priority 2008, dated 2012)
